Results taken from patent US20220096664A1, “STABILIZED FORMULATIONS CONTAINING IODINATED CONTRAST AGENTS AND CYCLODEXTRINS” (Verrow Pharmaceuticals, Inc., priority 2012, published 2022).
“Also recorded” adds a separate entry of the source. Like-named read-outs stand apart in the source and are kept apart here.

Experiments:
[1] = tested on: endothelial HMEC cells; conditions: incubation with sodium or potassium iodide; cited from earlier work
[2] = tested on: bovine aortic endothelial cells; conditions: cited from earlier work
[3] = contrast media solutions; cited from earlier work
[4] = Photostability: iodide formed after UV light irradiation; format: physicochemical; conditions: pH 8
Description: Aqueous solutions comprising iodinated contrast agents were prepared and evaluated in a photolysis chamber as described in the ICH guidance document, Q1B Photostability Testing of New Drug Substances and Products, available from the US Food and Drug Administration, incorporated herein by reference. The solutions were placed in 1 cm×1 cm (3 mL) quartz cuvettes having 2 clear sides and 2 sides etched. Lids were placed on the cuvettes and sealed with a wrap of Parafilm® around the joint. The cuvettes were placed in a photolysis chamber, upright on a flat surface beneath and centered between two horizontal 24 inch fluorescent lamps, (GE, black light F20T12, 20 watt for ultraviolet, or Philips F20T12/CW, 20 watt for visible) placed 6 cm apart. The cuvettes were positioned such that their two clear sides were facing the two lamps.
Cuvettes were spaced ˜2 cm from each other, and no closer than 15 cm from the ends of the lamps. This positioning allowed reproducible light exposure to all cuvettes.
(§1) The lamps were switched on and the solutions irradiated for 18 to 24 hours for the ultraviolet (UV) lamps or 72 to 90 hours for the visible (VIS) light lamps. At the end of the selected irradiation time, the cuvettes were removed from the photolysis chamber and mixed by inversion 2-times. The caps were then removed and 40 microliter aliquots taken and diluted with 1 mL of an aqueous solution containing ˜0.9 mg/mL sodium thiosulfate. The thiosulfate solution converted any I2, IO3^−, and I3^− present in the solution tor such that total iodine species could be determined in one assay.
(§2) The diluted solutions were assayed by high pressure liquid chromatography (HPLC) using a 4.6×250 mm, C-18, 5 micron particle size, reversed phase column with detection at 280 nm for the contrast agent and 230 nm for the thiosulfate and the iodide ion (r). A mobile phase of 30:70 methanol:aqueous buffer (50 mM KH2PO4+7 mL/L 40% tetrabutyl ammonium hydroxide) at 0.75 mL/min was used for elution. Injection volume was 20 microliters. External standards were prepared containing each contrast agent, potassium iodide, and sodium thiosulfate solution and analyzed along with the irradiated samples. The results were reported as weight percentage iodide formed (mg iodide/mg contrast agent times 100).
The absorbance readings at 400 nm due to light exposure were plotted against time of exposure and the resulting correlation used to determine the UV and VIS light exposure. A change in absorbance reading of 0.45 was assumed equivalent to 200 watt hours/square meter for the UV light and a change of 0.51 was assumed equivalent to 1.2 million lux hours for the VIS light. The UV lamps provided 6.62 watts/square meter and the VIS lamps provided 7180 lux.
Aqueous solutions were prepared containing 50 mM contrast agent by diluting commercially available solutions with water. Tromethamine HCl buffer (TRIS), was added to solutions as necessary to increase the TRIS content to that of the commercial product before dilution.
SCD was added to the solutions at various mole ratios and the pH of the solutions adjusted to 7.4 with 0.1N hydrochloric acid or 0.1N sodium hydroxide. The solutions were irradiated with UV light for 18 hours (119 watt hours/m^2) then processed, analyzed and reported as in Example 2. The SCDs evaluated were sulfobutyl ether beta-cyclodextrin with an average degree of substitution of 7 (SBE-704CD), and two 2-hydroxypropyl beta-cyclodextrin derivatives having 6.3 (HP-6.3n/CD) and 4.3 (HP-4.3-βCD) average degrees of substitution.
Aqueous solutions were prepared containing 50 mM contrast agent by diluting commercially available solutions with distilled water. Tromethamine HCl buffer (TRIS), was added to some solutions to increase the buffer content.
The solutions were divided and SBE-7-CD added to one aliquot at a contrast agent:SCD mole ratio of 1:1. The pH of the solutions was adjusted to 5, 6, 7, 7.4 or 8 with 0.1N hydrochloric acid or sodium hydroxide. […]

[5] = tested on: Beagle dog; experiment: Cardiovascular electrophysiology and hemodynamics after injection into the left main coronary artery; format: in vivo
Description: Aqueous formulations were prepared containing 755 mg/mL iohexol without (formulation 1) or with (formulation 2) sulfobutylether β-cyclodextrin, sodium salt (average degree of substitution-7) at an iohexol:SCD mole ratio of 1:0.025. The addition of the SCD added 154 mM sodium to the solution as its counterion. The formulations also contained 0.1 mg/mL edetate calcium disodium hydrate, and 1.2 mg/mL tromethamine buffer, with the pH of each solution adjusted to 7.4 with 1N HCl. The solutions were sterilized by filtration through a 0.22 micron filter. […]
The instrumentation provided measurement of right heart pressure, left ventricular pressure, aortic pressure, cardiac output and electrocardiography (ECG). The specific parameters measured were: systolic artery pressure (SAP), mean aortic pressure (MAP), diastolic aortic pressure (DAP), left ventricular systolic pressure (LVSP), left ventricular end diastolic pressure (LVEDP), left ventricle dP/dtmax (an indirect measure of contractile force), left ventricle dP/dtmin, cardiac output (CO), systemic vascular resistance (SVR), pulmonary vascular resistance (PVR), pulmonary artery pressure (PAP), monophasic action potential duration (MAPD30%, 50%, 90%), heart rate (HR), and from the ECG; PR interval, QRS duration, QT/QTc interval, JT/JTc interval (as needed) and arrhythmogenesis.

[6] = format: physicochemical
Description: as §1, §2
Aqueous solutions were prepared containing 50 mM iodinated contrast agent, 10 mM tromethamine HCl buffer (TRIS), with and without sulfobutylether beta-cyclodextrin with an average degree of substitution-7 (SBE7-β-CD), or 2-hydroxypropyl beta-cyclodextrin with an average degree of substitution of ˜6.3 (HP6.3-β-CD) or ˜4.3 (HP4.3-β-CD). The iohexol solution was prepared by dissolving solid iohexol powder while the other solutions were prepared by diluting commercial formulated products and adding sufficient TRIS buffer to reach 10 mM. The pH of the solutions was adjusted to 7.4 with 0.1N hydrochloric acid.
Aliquots of the solutions were irradiated with visible light for 72 hours (0.52 million lux hours). Other aliquots were autoclaved for 20 minutes at 121° C., cooled to room temperature and then irradiated with ultraviolet light for 18 hours (119 watt hours/m2). The solutions were then processed, analyzed and reported as in Example 2, except that the chromatographic peaks of the contrast agents were evaluated at 300 nm for both samples and standards.
Aqueous solutions were prepared containing 50 mM iohexol, 0, 2.5, 5, 7.5, or 10 mM tromethamine HCl (TRIS) buffer, with and without 2.5 mM sulfobutylether beta-cyclodextrin with an average degree of substitution-7 (SBE7-β-CD). The pH of the solutions was adjusted to 7.4 with 0.1N hydrochloric acid and the solutions were transferred to glass vials. The vials were stoppered, crimp-capped and autoclaved for 20 minutes at 121° C. The pH of the autoclaved solutions was measured after the solutions were at room temperature.
Aliquots of the autoclaved solutions were irradiated with visible light for 72 hours (0.52 million lux hours) and other aliquots irradiated with ultraviolet light for 18 hours (119 watt hours/m2). The solutions were then processed, analyzed and reported as in Example 2, except that the chromatographic peak of the iohexol was evaluated at 300 nm for both samples and standards.
Aqueous formulations were prepared containing iodinated contrast agents at concentrations used commercially in medical procedures. Sulfobutylether-cyclodextrin, sodium salt, average degree of substitution ˜7 (SBE7CD) was added at varying agent:CD mole ratios. The formulations were placed in glass vials, sealed with rubber stoppers and aluminum crimps, and autoclaved at 121° C. for 20 minutes. […]

I [iodide]
toxicity in cultured endothelial HMEC cells [1]: causes toxicity

CN(C(=O)CO)c1c(I)c(C(=O)NCC(O)CO)c(I)c(C(=O)NCC(O)CO)c1I (stereo not drawn) [iomeprol]
toxicity to bovine aortic endothelial cells ([2]; X-ray irradiated contrast agent): toxic to bovine aortic endothelial cells | toxicity to bovine aortic endothelial cells ([2]; non-irradiated contrast agent): not toxic

CC(=O)N(CC(O)CO)c1c(I)c(C(=O)NCC(O)CO)c(I)c(C(=O)NCC(O)CO)c1I (stereo not drawn) [Iohexol, iohexol]
degradation in solution after exposure to ultraviolet light [3]: formation of iodine and iodide ions | stabilization against photolysis by UV light [4]: stabilized iohexol against photolysis by UV light | qualitative alterations in electrocardiographic morphology ([5]; concomitant with injection into the coronary artery): QRS complex widening along with ST segment depression; also recorded: Scattered premature ventricular contractions | ECG morphology returned to normal after the last injection ([5]; intracoronary): within five minutes | iodide degradant after UV irradiation in the presence of the SCD [6]: Less of the iodide degradant was observed in the presence of the SCD | stabilization against photolysis by visible light irradiation [6]: the SCD also stabilized the solutions against photolysis by visible light irradiation
